Laboratory results as given in patent US10555951B2, “Targeted treatment of leiomyosarcoma” (Eli Lilly and Company, priority 2015, dated 2020).
“And” between values parts separate entries of the source, which are not always exact repeats. Equal values may be shown once.

Assays:
[1] = system: leiomyosarcoma tumor; assay: Clinical evaluation Part B: leiomyosarcoma patients, RECIST, tumor size, PET/CT SUVmax (Table 3); format: in vivo, human
Description: PET/CT imaging of cancer with combined positron emission tomography (PET) and X-ray computerized tomography (CT) scanners has become a standard component of diagnosis and staging in oncology. The use of the radiolabeled tracer 2-deoxy-2-[^18F]fluoro-D-glucose (FDG) is used for the majority of all PET/CT imaging procedures. One of the advantages of PET/CT imaging is its ability to detect, very early during treatment, significant changes in glucose metabolism or even complete shutoff of the neoplastic cell metabolism as a surrogate of tumor chemosensitivity assessment. In addition to cancer detection and staging, PET/CT imaging is becoming increasingly important as a quantitative monitor of individual response to therapy and an evaluation tool for new drug therapies. […] RECIST criteria, where response of tumors to therapy has traditionally assessed by measurement of changes in size/dimension of the tumors in CT images may not evidence early response to the therapy. Changes in size of tumors as a result of therapy may take a long period of time to develop. The most widely used parameter is the standardized uptake value (SUV) is defined as the maximal SUV value (SUVMAX) in the region of interest and reduction in SUVMAX is generally considered the most reliable indicator of the metabolic activity shutdown.
(§1) This study is a multicenter, nonrandomized, open-label, dose-escalation study followed by cohort expansion of oral dosed 4,4,4-trifluoro-N-[(1S)-2-[[(7S)-5-(2-hydroxyethyl)-6-oxo-7H-pyrido[2,3-d][3]benzazepin-7-yl]amino]-1-methyl-2-oxo-ethyl]butanamide hydrate in outpatients with advanced or metastatic cancer.
(§2) 4,4,4-Trifluoro-N-[(1S)-2-[[(7S)-5-(2-hydroxyethyl)-6-oxo-7H-pyrido[2,3-d][3]benzazepin-7-yl]amino]-1-methyl-2-oxo-ethyl]butanamide hydrate, dose range 2.5 to 100 mg, given orally as capsules 3 times per week during a 28-day cycle.
(§3) 4,4,4-Trifluoro-N-[(1S)-2-[[(7S)-5-(2-hydroxyethyl)-6-oxo-7H-pyrido[2,3-d][3]benzazepin-7-yl]amino]-1-methyl-2-oxo-ethyl]butanamide hydrate will be administered orally TIW during both the dose-escalation phase (Part A) and the dose-confirmation phase (Part B).
(§4) Efficacy: Depending on the histology, efficacy will be assessed using Response Evaluation Criteria in Solid Tumors (RECIST) v1.1 for solid tumors, the Revised Criteria for Malignant Lymphoma, the Guidelines from the National Cancer Institute Working Group for CLL, or the Response Assessment in Neuro-Oncology (RANO) criteria for glioblastoma. Each patient will be assessed by 1 or more of the following radiologic tests for tumor measurement: X-ray computerized tomography (CT) scan; magnetic resonance imaging (MRI); chest X-ray; PET scan; PET/CT imaging Standardized Uptake Values (SUVMAX).
Data on 19 additional patients having leiomyosarcoma administered 4,4,4-trifluoro-N-[(1S)-2-[[(7S)-5-(2-hydroxyethyl)-6-oxo-7H-pyrido[2,3-d][3]benzazepin-7-yl]amino]-1-methyl-2-oxo-ethyl]butanamide hydrate in Part B of an ongoing clinical trial are presented in Table 3. Choi Response Criteria, were recorded for a limited number of patients and are not reported in Table 3, Choi et al, J Clin Oncol. 2007; 25:1753-1759.

[2] = system: leiomyosarcoma tumor; assay: Clinical evaluation: leiomyosarcoma patients, cycle 1, CT scan and DCE-US (Table 2); format: in vivo, human
Description: A study of 4,4,4-Trifluoro-N-[(1S)-2-[[(7S)-5-(2-hydroxyethyl)-6-oxo-7H-pyrido[2,3-d][3]benzazepin-7-yl]amino]-1-methyl-2-oxo-ethyl]butanamide hydrate in patients with advanced or metastatic cancer.
as §1, §2, §3, §4
Data on 3 patients having leiomyosarcoma administered 4,4,4-trifluoro-N-[(1S)-2-[[(7S)-5-(2-hydroxyethyl)-6-oxo-7H-pyrido[2,3-d][3]benzazepin-7-yl]amino]-1-methyl-2-oxo-ethyl]butanamide hydrate in cycle 1 of an ongoing clinical trial are presented in Table 2. Patient 1 was previously treated for leiomyosarcoma with surgery, radiation therapy and 5 prior regimens of systemic therapeutic or targeted therapies. Patient 2 was previously treated for leiomyosarcoma with surgery, radiation therapy, brachytherapy and 3 prior regimens of systemic therapeutic or targeted therapies. Patient 3 was previously treated for leiomyosarcoma with surgery and 3 prior regimens of systemic therapeutic or targeted therapies.

[3] = Atropisomer equilibrium in solution by 1H NMR and LC-MS; format: physicochemical; settings: ambient temperature, after 24 hours
Description: In aqueous solutions, 8-9% of atropisomer 2 (minor atropisomer) is detected by ^1H NMR and LC-MS in equilibrium with atropisomer 1 (major atropisomer) at ambient temperature after 24 hours. In organic solvents, at ambient temperature after 24 hours, approximately 1-2% of atropisomer 2 is detected by ^1H NMR and LC-MS in equilibrium with atropisomer 1. Although detectable by ^1H NMR and LC-MS analysis, atropisomer 2 is not isolable.

[4] = first assigned dose 50 mg, individual LMS patients 8-22, Hydrate
[5] = first assigned dose 75 mg, individual LMS patients 4-7, Hydrate
[6] = Patient 1, initial oral dose 100 mg T.I.W., cycle 1

Row | Structure (SMILES) | Best Change in Tumor Size (%) [1, 4] | PET/CT Scan (change in SUVmax %) [1, 4] | Best Change in Tumor Size (%) [1, 5] | Best RECIST Response [1, 5] | PET/CT Scan (change in SUVmax %) [1, 5] | Clinical effect in leiomyosarcoma tumor patients (PET/CT SUVMAX data) ([1]; summary of Table 3 data) | Overall Response DCE-US [2, 6] | Target Response [2, 6] [% necrosis] | Additional CT scan imaging after 1 cycle ([2]; after 1 cycle (28 days), patients 1-3) | Necrosis of leiomyosarcoma tumor (CT scan of the liver, confirmed by DCE-US) ([2]; patients 1 and 2, first week of treatment) | atropisomer 2 (minor atropisomer) detected in equilibrium with atropisomer 1 ([3]; aqueous solutions) | atropisomer 2 detected in equilibrium with atropisomer 1 ([3]; organic solvents)
1 | C[C@H](NC(=O)CCC(F)(F)F)C(=O)N[C@@H]1C(=O)N(CCO)c2ncccc2-c2ccccc21 [4,4,4-Trifluoro-N-[(1S)-2-[[(7S)-5-(2-hydroxyethyl)-6-oxo-7H-pyrido[2,3-d][3]benzazepin-7-yl]amino]-1-methyl-2-oxo-ethyl]butanamide Hydrate] | 13% and 60% and 37% and 19% and 20% and −13% and 33% and 24% and 23% and 50% | −7% and 37% and −5% and −30% and 0% and −11% and 16% | 13% and 23% and 2% | Unconfirmed PR | −4% and 58% and 10% and 32% | beneficial clinical effect | Confirmed | 90 | confirmed necrosis in all three patients | significant necrosis | – | –
2 | C[C@H](NC(=O)CCC(F)(F)F)C(=O)N[C@@H]1C(=O)N(CCO)c2ncccc2-c2ccccc21 [Compound 1, 4,4,4-trifluoro-N-[(1S)-2-[[(7S)-5-(2-hydroxyethyl)-6-oxo-7H-pyrido[2,3-d][3]benzazepin-7-yl]amino]-1-methyl-2-oxo-ethyl]butanamide] | – | – | – | – | – | – | – | – | – | – | 8-9% | 1-2%
